Measured values: patent US8741836B2, “Polypeptides” (Novo Nordisk A/S, priority 2011, dated 2014)
Where two headings read alike, the source gives them in different places. Starred links: 1 amine or outer side, 2 acyl side, 3 side chain; linkers in the order of their positions; H or OH if unused. Positions of bridges follow the written chain, without caps; N, C: chain ends. Residues, ends and D or L forms follow the SMILES beside them. Groups on a side chain read outwards from the residue. *: point of attachment. C20 diacid = O=C(O)CCCCCCCCCCCCCCCCCCC(=O)*; C18 diacid = O=C(O)CCCCCCCCCCCCCCCCC(=O)*; γGlu = O=C(O)[C@H](CCC(=O)[*:2])N[*:1]; AEEA = NCCOCCOCC(=O)O

Assays:
[1] = target: T1, human calcitonin receptor (Homo sapiens, UniProt P30988); assay: Assay (II)a functional assay, human calcitonin receptor (CRE luciferase reporter in BHK cells); format: cell-based
T1 construct: expressed in transfected cells; CRE-luciferase reporter
T1 sequence (P30988 25-474): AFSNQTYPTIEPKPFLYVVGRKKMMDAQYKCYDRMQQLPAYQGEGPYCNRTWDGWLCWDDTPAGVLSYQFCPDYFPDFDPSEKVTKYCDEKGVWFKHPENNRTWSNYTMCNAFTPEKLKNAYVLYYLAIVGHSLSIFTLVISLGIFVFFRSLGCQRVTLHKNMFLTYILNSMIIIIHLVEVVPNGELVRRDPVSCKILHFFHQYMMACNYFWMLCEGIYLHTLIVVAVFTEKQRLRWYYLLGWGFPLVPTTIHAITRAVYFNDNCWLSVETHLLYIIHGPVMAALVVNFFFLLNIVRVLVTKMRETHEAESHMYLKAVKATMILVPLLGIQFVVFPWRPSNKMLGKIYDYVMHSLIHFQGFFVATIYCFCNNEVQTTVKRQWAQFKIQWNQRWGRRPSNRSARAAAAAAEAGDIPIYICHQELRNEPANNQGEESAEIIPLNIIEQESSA
Text: (§1) 1. Luciferase Assay Outline
(§2) Activation of calcitonin and amylin (coexpression of calcitonin receptor and receptor activity modifying proteins (RAMP)) receptors lead to increased intracellular concentrations of cAMP. Consequently, transcription is activated by promoters containing multiple copies of the cAMP response element (CRE). It is thus possible to measure amylin activity by the use of a CRE luciferase reporter gene introduced into BHK cells also expressing calcitonin or amylin receptors.
(§3) A BHK570 cell line was stably transfected with the human calcitonin receptor and a CRE-responsive luciferase reporter gene. The cell line was further transfected with RAMP-3, using standard methods. This turns the calcitonin receptor into an amylin 3(a) receptor. Methotrexate, Neomycin, and Hygromycin are selection markers for luciferase, the calcitonin receptor, and RAMP-3, respectively.
(§4) To perform activity assays, BHK calcitonin (a) receptor- or amylin 3(a)-receptor/CRE-luc cells were seeded in white 96 well culture plates at a density of about 20.000 cells/well. […] After incubation overnight at 37° C. and 5% CO2, the growth medium was replaced by 50 μl/well assay medium (DMEM (without phenol red), Glutamax™, 10% FBS, and 10 mM Hepes, pH 7.4). Further, 50 μl/well of standard or sample in assay buffer were added. After 3 hours incubation at 37° C. and 5% CO2, the assay medium with standard or sample were removed and replaced by 100 μl/well PBS. Further, 100 μl/well LucLite™ was added. The plates were sealed and incubated at room temperature for 30 minutes. Finally, luminescence was measured on a TopCounter (Packard) in SPC (single photon counting) mode.

[2] = target: T2, human amylin 3(a) receptor (human calcitonin receptor + RAMP-3) (Homo sapiens, UniProt O60896+P30988); assay: Assay (II)a functional assay, human amylin receptor (CRE luciferase reporter in BHK cells); format: cell-based
T2 construct: expressed in transfected cells; CRE-luciferase reporter
T2 sequence (P30988 25-474): T1 sequence (P30988 25-474)
T2 sequence (O60896 24-148 partner): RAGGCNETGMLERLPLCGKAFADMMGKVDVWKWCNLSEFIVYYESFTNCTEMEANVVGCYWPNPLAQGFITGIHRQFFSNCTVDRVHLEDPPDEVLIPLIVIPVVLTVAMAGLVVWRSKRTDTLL
Text: as §1, §2, §3, §4

[3] = Assay (IV) determination of solubility; format: physicochemical
Description: Assay (IV)—Determination of Solubility
The polypeptide was dissolved in water at −500 nmol/ml and mixed 1:1 with a series of buffers (100 mM glycylglycine pH 3.0, 100 mM glycylglycine pH 4.0, 100 mM glycylglycine pH 5.0, 100 mM bistrispropane pH 6.0, 100 mM bistrispropane pH 6.5, 100 mM bistrispropane pH 7.0, 100 mM bistrispropane pH 7.5, 100 mM bistrispropane pH 8.0). After 18 hours at room temperature the samples were centrifuged and the polypeptide concentration determined by HPLC.

[4] = Table 11, human calcitonin receptor, read-out: CTa receptor human EC50
[5] = Table 11, human amylin receptor
[6] = Table 7, human calcitonin (CTa) receptor

Row | EC50 [1, 4] [nM] | EC50 [2, 5] [nM] | EC50 [1, 6] [nM] | EC50 ([2]; Table 6, human amylin receptor) [nM] | solubility at 18 h ([3]; bistrispropane buffer, pH 6.5, read-out: Solubility) [µM] | solubility at 18 h ([3]; bistrispropane buffer, pH 7.5, read-out: Solubility) [µM] | solubility at 18 h ([3]; bistrispropane buffer, pH 6.0, read-out: Solubility) [µM] | solubility at 18 h ([3]; bistrispropane buffer, pH 7.0, read-out: Solubility pH 7.0) [µM] | solubility at 18 h ([3]; bistrispropane buffer, pH 8.0, read-out: Solubility) [µM] | solubility at 18 h ([3]; glycylglycine buffer, pH 3.0, read-out: Solubility) [µM] | solubility at 18 h ([3]; glycylglycine buffer, pH 4.0, read-out: Solubility pH 4.0) [µM] | solubility at 18 h ([3]; glycylglycine buffer, pH 5.0, read-out: Solubility) [µM] | solubility at 18 h ([3]; pH 4.0, read-out: Solubility) [µM] | solubility at 18 h ([3]; pH 7.0, read-out: Solubility) [µM] | EC50 [2] [nM] | EC50 ([2]; Table 4) [nM] | EC50 ([2]; Table 7, human amylin receptor) [nM] | Compound
1 | 0.101 | 0.076 | – | – | – | – | – | – | – | – | – | – | – | – | – | – | – | CC[C@H](C)[C@H](NC(=O)[C@H](CCCCNC(=O)COCCOCCNC(=O)COCCOCCNC(=O)CC[C@H](NC(=O)CCCCCCCCCCCCCCCCC(=O)O)C(=O)O)NC(=O)CNC(=O)[C@H](Cc1ccccc1)NC(=O)[C@H](CC(N)=O)NC(=O)[C@H](CC(N)=O)NC(=O)[C@H](CO)NC(=O)[C@H](CO)NC(=O)[C@H](Cc1c[nH]cn1)NC(=O)[C@@H](NC(=O)[C@H](CC(C)C)NC(=O)[C@H](Cc1ccccc1)NC(=O)[C@H](CCC(=O)O)NC(=O)[C@H](C)NC(=O)[C@H](CC(C)C)NC(=O)[C@H](CCCNC(=N)N)NC(=O)[C@H](CCC(N)=O)NC(=O)[C@@H](NC(=O)[C@H](C)NC(=O)[C@@H]1CSSC[C@H](NC(=O)[C@@H](N)CCCCN)C(=O)N[C@@H](CC(N)=O)C(=O)N[C@@H]([C@@H](C)O)C(=O)N[C@@H](C)C(=O)N[C@@H]([C@@H](C)O)C(=O)N1)[C@@H](C)O)C(C)C)C(=O)N[C@@H](CC(C)C)C(=O)N1CCC[C@H]1C(=O)N1CCC[C@H]1C(=O)N[C@H](C(=O)N[C@@H](CC(N)=O)C(=O)N[C@H](C(=O)NCC(=O)N[C@@H](CO)C(=O)N[C@@H](CC(N)=O)C(=O)N[C@H](C(=O)N[C@@H](Cc1ccc(O)cc1)C(N)=O)[C@@H](C)O)C(C)C)[C@@H](C)O [Example 126] (H-KCNTATCATQRLAEFLVHSSNNFGK([AEEA-AEEA-γGlu-C18 diacid])ILPPTNVGSNTY-NH2; disulfide 2-7 (inferred); N-terminus and C-terminus assumed)
2 | – | – | 0.492 | 0.385 | – | – | – | – | – | – | – | – | – | – | – | – | – | CC[C@H](C)[C@H](NC(=O)[C@@H]1CCCN1C(=O)CNC(=O)[C@H](CC(C)C)NC(=O)[C@H](CCC(=O)O)NC(=O)[C@H](CCC(N)=O)NC(=O)[C@@H](NC(=O)[C@H](C)NC(=O)[C@H](CCCNC(=N)N)NC(=O)[C@H](Cc1c[nH]cn1)NC(=O)[C@H](CC(C)C)NC(=O)[C@H](Cc1ccccc1)NC(=O)[C@H](CCC(=O)O)NC(=O)[C@H](C)NC(=O)[C@H](CC(C)C)NC(=O)[C@H](CCCNC(=N)N)NC(=O)[C@H](CCC(N)=O)NC(=O)[C@@H](NC(=O)[C@H](C)NC(=O)[C@@H]1CSSC[C@H](NC(=O)[C@H](Cc2c[nH]cn2)NC(=O)COCCOCCNC(=O)COCCOCCNC(=O)CC[C@H](NC(=O)CCCCCCCCCCCCCCCCCCC(=O)O)C(=O)O)C(=O)N[C@@H](CC(N)=O)C(=O)N[C@@H]([C@@H](C)O)C(=O)N[C@@H](C)C(=O)N[C@@H]([C@@H](C)O)C(=O)N1)[C@@H](C)O)[C@@H](C)O)C(=O)N[C@@H](CC(C)C)C(=O)N1CCC[C@H]1C(=O)N1CCC[C@H]1C(=O)N[C@H](C(=O)N[C@@H](CC(N)=O)C(=O)N[C@H](C(=O)NCC(=O)N[C@@H](CO)C(=O)N[C@@H](CC(N)=O)C(=O)N[C@H](C(=O)N[C@@H](Cc1ccc(O)cc1)C(N)=O)[C@@H](C)O)C(C)C)[C@@H](C)O [Example 23] ({C20 diacid-γGlu-AEEA-AEEA}-HCNTATCATQRLAEFLHRATQELGPILPPTNVGSNTY-NH2; disulfide 2-7)
3 | 0.0675 | 0.209 | 0.0675 | 0.209 | > 200 | > 200 | > 200 | > 200 | > 200 | > 200 | > 200 | > 200 | >200 | >200 | 0.209 | 0.209 | 0.209 | CC(C)C[C@H](NC(=O)[C@H](CCCNC(=N)N)NC(=O)[C@H](CCC(N)=O)NC(=O)[C@@H](NC(=O)[C@H](C)NC(=O)[C@@H]1CSSC[C@H](NC(=O)[C@@H](N)CCCCNC(=O)CC[C@H](NC(=O)CCCCCCCCCCCCCCCCCCC(=O)O)C(=O)O)C(=O)N[C@@H](CC(N)=O)C(=O)N[C@@H]([C@@H](C)O)C(=O)N[C@@H](C)C(=O)N[C@@H]([C@@H](C)O)C(=O)N1)[C@@H](C)O)C(=O)N[C@@H](C)C(=O)N[C@@H](CCC(=O)O)C(=O)N[C@@H](Cc1ccccc1)C(=O)N[C@@H](CC(C)C)C(=O)N[C@@H](Cc1c[nH]cn1)C(=O)N[C@@H](Cc1c[nH]cn1)C(=O)N[C@@H](CO)C(=O)N[C@@H](CO)C(=O)N[C@@H](CCC(N)=O)C(=O)N[C@@H](CC(N)=O)C(=O)N[C@@H](Cc1ccccc1)C(=O)NCC(=O)N[C@@H](C)C(=O)N1CCC[C@H]1C(=O)N[C@@H](CC(C)C)C(=O)N[C@@H](CO)C(=O)N[C@@H](CO)C(=O)N[C@H](C(=O)N[C@@H](CC(N)=O)C(=O)N[C@H](C(=O)NCC(=O)N[C@@H](CO)C(=O)N[C@@H](CC(N)=O)C(=O)N[C@H](C(=O)N1CCC[C@H]1C(N)=O)[C@@H](C)O)C(C)C)[C@@H](C)O [Example 151, N-epsilon1-[(S)-4-Carboxy-4-(19-carboxynonadecanoylamino)butyryl]-[Glu14,His17,Gln21,Ala25,Pro26,Ser28,Ser29,Pro37]-pramlintide] (H-K([γGlu-C20 diacid])CNTATCATQRLAEFLHHSSQNFGAPLSSTNVGSNTP-NH2; disulfide 2-7 (inferred); N-terminus assumed)
